{"source": "paper PMC4192545", "about": "“Suramin Inhibits Hsp104 ATPase and Disaggregase Activity” (PLoS ONE, 2014)", "key": {"Hsp104^WT [1]": {"molecular_target": "T1, Hsp104^WT (Saccharomyces cerevisiae, UniProt P31539)", "T1 construct": "made in house; host or cells: E. coli BL21-DE3 RIL", "T1 sequence (P31539 whole entry)": "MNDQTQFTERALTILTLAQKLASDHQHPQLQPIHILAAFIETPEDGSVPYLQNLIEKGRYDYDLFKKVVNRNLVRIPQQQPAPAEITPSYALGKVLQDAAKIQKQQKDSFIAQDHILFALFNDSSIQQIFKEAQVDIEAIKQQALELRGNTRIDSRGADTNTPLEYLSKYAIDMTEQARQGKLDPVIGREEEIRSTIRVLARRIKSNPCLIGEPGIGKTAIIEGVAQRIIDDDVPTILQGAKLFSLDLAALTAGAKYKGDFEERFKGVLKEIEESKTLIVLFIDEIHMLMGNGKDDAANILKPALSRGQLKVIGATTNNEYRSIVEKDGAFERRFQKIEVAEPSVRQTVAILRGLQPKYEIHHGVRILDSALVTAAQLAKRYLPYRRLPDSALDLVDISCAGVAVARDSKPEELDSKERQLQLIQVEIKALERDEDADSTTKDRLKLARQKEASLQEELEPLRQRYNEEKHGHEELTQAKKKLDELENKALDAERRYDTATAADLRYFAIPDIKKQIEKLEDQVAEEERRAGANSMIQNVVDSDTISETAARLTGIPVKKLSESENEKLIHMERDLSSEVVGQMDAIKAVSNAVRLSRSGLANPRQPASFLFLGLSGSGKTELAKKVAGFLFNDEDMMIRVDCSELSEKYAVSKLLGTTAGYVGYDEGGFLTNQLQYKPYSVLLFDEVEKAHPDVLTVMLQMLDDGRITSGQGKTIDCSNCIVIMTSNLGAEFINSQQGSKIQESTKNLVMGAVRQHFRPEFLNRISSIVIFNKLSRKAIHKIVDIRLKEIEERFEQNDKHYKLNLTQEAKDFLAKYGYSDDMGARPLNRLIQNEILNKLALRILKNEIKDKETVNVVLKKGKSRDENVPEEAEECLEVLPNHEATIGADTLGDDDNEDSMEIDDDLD", "assay": "Manual ATPase assay, Hsp104^WT", "assay_type": "biochemical, yeast", "details": "for Normalized ATPase Activity: Figure 2B", "method": "Wild-type or mutant Hsp104 (0.25 µM monomer) in ATPase buffer (20 mM HEPES-KOH pH 7.4, 20 mM NaCl and 10 mM MgCl2) was incubated for 60 or 10 min at 25°C in the presence of ATP (1 mM) as noted. ATPase activity was assessed by the release of inorganic phosphate determined by using a malachite green phosphate detection kit (Innova)."}, "Hsp104^WT [2]": {"molecular_target": "T1, Hsp104^WT", "assay": "RepA1–70-GFP unfolding assay", "assay_type": "biochemical, yeast", "details": "GroELtrap, ATP:ATPγS 1:1", "method": "RepA1–70-GFP unfolding was performed as described previously. Varying concentrations of Suramin (0, 25, or 100 µM) were included as noted.\nNext, we determined that Suramin hinders the unfoldase activity of Hsp104 using a RepA1–70-GFP substrate ( Figure 4A ). To assess RepA1–70-GFP unfolding without interference from spontaneous refolding, we added GroELtrap, which captures unfolded proteins to prevent refolding, [71].\nFigure 4 Suramin inhibits Hsp104-mediated substrate unfolding and translocation. (A) RepA1–70-GFP was incubated with Hsp104^WT and GroELtrap plus a 1∶1 mixture of ATP and ATPγS. GFP unfolding was measured by fluorescence. GroELtrap alone is shown as a negative control (red line). Fluorescence values were normalized to initial raw fluorescence for each sample. Values represent mean ±S.D. (n = 3). (B) FITC-casein (0.1 µM) was incubated at 25°C with HAP (1 µM hexamer) and ClpP (21 µM monomer) plus ATP (5 mM) and an ATP regeneration system. Degradation of FITC-casein was monitored by fluorescence. Initial fluorescence was subtracted from raw fluorescence values for each sample. HAP alone is shown as a negative control (red line). Values represent mean ±S.D. (n = 5)."}, "ClpB": {"molecular_target": "T2, ClpB (Escherichia coli, UniProt P63284)", "T2 construct": "made in house", "T2 sequence (P63284 whole entry)": "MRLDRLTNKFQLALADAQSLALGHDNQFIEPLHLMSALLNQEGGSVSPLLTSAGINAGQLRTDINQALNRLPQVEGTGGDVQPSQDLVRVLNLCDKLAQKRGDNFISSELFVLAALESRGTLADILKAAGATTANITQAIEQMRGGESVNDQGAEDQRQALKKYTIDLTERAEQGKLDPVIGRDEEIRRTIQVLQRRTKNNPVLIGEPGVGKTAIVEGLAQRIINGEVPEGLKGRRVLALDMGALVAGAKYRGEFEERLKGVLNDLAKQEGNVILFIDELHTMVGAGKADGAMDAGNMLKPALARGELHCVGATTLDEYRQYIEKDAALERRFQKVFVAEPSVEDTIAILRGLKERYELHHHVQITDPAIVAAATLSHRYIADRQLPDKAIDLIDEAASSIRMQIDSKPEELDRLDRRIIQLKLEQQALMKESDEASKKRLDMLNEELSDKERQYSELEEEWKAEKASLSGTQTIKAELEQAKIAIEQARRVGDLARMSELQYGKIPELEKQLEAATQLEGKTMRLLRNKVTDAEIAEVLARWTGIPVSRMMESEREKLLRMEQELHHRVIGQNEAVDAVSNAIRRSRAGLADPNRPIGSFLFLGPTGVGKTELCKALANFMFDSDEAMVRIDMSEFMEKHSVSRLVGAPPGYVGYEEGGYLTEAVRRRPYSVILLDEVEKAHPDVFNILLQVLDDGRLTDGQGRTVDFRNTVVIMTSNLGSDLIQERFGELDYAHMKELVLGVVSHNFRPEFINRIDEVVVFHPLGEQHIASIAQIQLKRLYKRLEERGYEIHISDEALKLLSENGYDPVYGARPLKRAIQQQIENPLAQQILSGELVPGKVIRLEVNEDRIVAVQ", "assay": "ClpB luciferase reactivation assay", "assay_type": "biochemical, E. coli", "method": "Luciferase reactivation was performed as described, [37]. To assemble aggregates, firefly luciferase (50 µM) in luciferase refolding buffer (LRB, 25 mM HEPES-KOH, 7.4, 150 mM KAOc, 10 mM MgAOc, 10 mM DTT) with 6 M urea was incubated at 30°C for 20 min. Luciferase was then rapidly diluted 100-fold into LRB, divided into 100 µL aliquots, snap frozen in liquid N2, and stored at −80°C. For reactivation assays, aggregated luciferase (50 nM) was incubated with Hsp104 (1 µM hexamer), plus 2.6 mM ATPγS, 2.6 mM ATP and an ATP regeneration system (1 mM creatine phosphate, 0.25 µM creatine kinase (Roche Applied Science)) for 90 minutes at 25°C. Luciferase assay system was purchased from Promega. Luciferase activity was assessed by luminescence measured on a Safire^2 microplate reader (Tecan, Männedorf, Switzerland). The half maximal inhibitory concentration (IC50) was calculating by fitting luciferase-refolding data at different Suramin concentrations with Prism (GraphPad Software, Inc., La Jolla, CA).\n(A) ClpB (0.25 µM monomer) was incubated for 10 min with ATP (1 mM) and varying concentrations of Suramin. The amount of Pi produced was measured by absorbance at 635 nm. Absorbance values were normalized to the absorbance produced by ClpB in the absence of inhibitor. Values represent mean ±S.D. (n = 6). (B) Urea-denatured firefly luciferase aggregates were incubated for 90 min at 25°C with ClpB (1 µM hexamer) in the presence of 1∶1 mixtures of ATP and ATPγS and varying concentrations of Suramin. Reactivation of luciferase was then determined by luminescence and converted to % WT ClpB activity (activity of 1 µM WT ClpB in the presence of ATP and ATPγS). Values represent mean ±S.D. (n = 6–12). TEXT PRINTED IN THE PICTURE: (A) Suramin: Normalized ATPase Activity: 1.03 ([Suramin] μM: 0); Normalized ATPase Activity: 0.76 ([Suramin] μM: 100); Normalized ATPase Activity: 0.78 ([Suramin] μM: 50); Normalized ATPase Activity: 0.60 ([Suramin] μM: 25); Normalized ATPase Activity: 0.59 ([Suramin] μM: 10); Normalized ATPase Activity: 0.65 ([Suramin] μM: 5); Normalized ATPase Activity: 1.01 ([Suramin] μM: 1) | (B) Suramin: Normalized Luciferase Refolding Activity: 1.00 ([Suramin] μM: 0); Normalized Luciferase Refolding Activity: 0.16 ([Suramin] μM: 100); Normalized Luciferase Refolding Activity: 1.03 ([Suramin] μM: 50); Normalized Luciferase Refolding Activity: 1.39 ([Suramin] μM: 25); Normalized Luciferase Refolding Activity: 2.23 ([Suramin] μM: 10); Normalized Luciferase Refolding Activity: 1.82 ([Suramin] μM: 5); Normalized Luciferase Refolding Activity: 1.02 ([Suramin] μM: 1)"}}}
{"compound": "Cc1ccc(C(=O)Nc2ccc(S(=O)(=O)O)c3cc(S(=O)(=O)O)cc(S(=O)(=O)O)c23)cc1NC(=O)c1cccc(NC(=O)Nc2cccc(C(=O)Nc3cc(C(=O)Nc4ccc(S(=O)(=O)O)c5cc(S(=O)(=O)O)cc(S(=O)(=O)O)c45)ccc3C)c2)c1", "note": "[Suramin]", "values": [{"measurement": "IC50", "setting": "Hsp104^WT [1]; 10 min reaction, ATP 1 mM", "result": "~3.39", "unit": "µM"}, {"measurement": "Effect on Hsp104 ATPase activity (Pi produced), manual assay", "setting": "Hsp104^WT [1]; 60 min, ATP 1 mM, varying concentrations, Figure 2A", "result": "greatly diminished the amount of Pi produced in a concentration-dependent manner"}, {"measurement": "Inhibitor concentration of maximal ATPase inhibition", "setting": "Hsp104^WT [1]; Hsp104 WT", "result": 25, "unit": "µM"}, {"measurement": "Normalized ATPase Activity", "setting": "Hsp104^WT [1]; Suramin 1 µM, 10 min, ATP 1 mM", "result": 1.08}, {"measurement": "Normalized ATPase Activity", "setting": "Hsp104^WT [1]; Suramin 5 µM, 10 min, ATP 1 mM", "result": 0.62}, {"measurement": "Normalized ATPase Activity", "setting": "Hsp104^WT [1]; Suramin 10 µM, 10 min, ATP 1 mM", "result": 0.37}, {"measurement": "Normalized ATPase Activity", "setting": "Hsp104^WT [1]; Suramin 25 µM, 10 min, ATP 1 mM", "result": 0.27}, {"measurement": "activity at 25 µM", "setting": "Hsp104^WT [1]; Suramin 25 µM, 10 min, read-out: Hsp104^WT ATPase activity relative to uninhibited Hsp104", "result": 30, "unit": "%"}, {"measurement": "Normalized ATPase Activity", "setting": "Hsp104^WT [1]; Suramin 50 µM, 10 min, ATP 1 mM", "result": 0.29}, {"measurement": "inhibition at 100 µM", "setting": "Hsp104^WT [1]; Suramin 100 µM, 10 min", "result": "> 60", "unit": "%"}, {"measurement": "Normalized ATPase Activity", "setting": "Hsp104^WT [1]; Suramin 100 µM, 10 min, ATP 1 mM", "result": 0.33}, {"measurement": "activity at 100 µM", "setting": "Hsp104^WT [1]; Suramin 100 µM, 10 min, read-out: Hsp104^WT ATPase activity relative to uninhibited protein", "result": "~35", "unit": "%"}, {"measurement": "Normalized ATPase Activity", "setting": "Hsp104^WT [1]; Suramin 250 µM, 10 min, ATP 1 mM", "result": 0.37}, {"measurement": "Effect on RepA1–70-GFP unfolding by Hsp104", "setting": "Hsp104^WT [2]; Suramin 25 µM", "result": "only mildly inhibited"}, {"measurement": "Effect on RepA1–70-GFP unfolding by Hsp104", "setting": "Hsp104^WT [2]; Suramin 100 µM", "result": "prevented substrate unfolding"}, {"measurement": "Normalized Luciferase Refolding Activity", "setting": "ClpB; ClpB 1 µM hexamer, Suramin 100 µM, 90 min 25°C, ATP:ATPγS 1:1, Figure 5B", "result": 0.16}, {"measurement": "Normalized Luciferase Refolding Activity", "setting": "ClpB; ClpB, Suramin 1 µM, Figure 5B", "result": 1.02}, {"measurement": "Normalized Luciferase Refolding Activity", "setting": "ClpB; ClpB, Suramin 5 µM, Figure 5B", "result": 1.82}, {"measurement": "Normalized Luciferase Refolding Activity", "setting": "ClpB; ClpB, Suramin 10 µM, Figure 5B", "result": 2.23}, {"measurement": "Normalized Luciferase Refolding Activity", "setting": "ClpB; ClpB, Suramin 25 µM, Figure 5B", "result": 1.39}, {"measurement": "Normalized Luciferase Refolding Activity", "setting": "ClpB; ClpB, Suramin 50 µM, Figure 5B", "result": 1.03}, {"measurement": "ClpB refolding power retained", "setting": "ClpB; Suramin 50 µM", "result": 100, "unit": "%"}, {"measurement": "remaining activity at 100 µM", "setting": "ClpB; Suramin 100 µM, read-out: ClpB disaggregase activity remaining", "result": 16, "unit": "%"}, {"measurement": "Effect on ClpB luciferase reactivation", "setting": "ClpB; low concentrations of Suramin", "result": "increased the amount of luciferase ClpB was able to reactivate"}]}
